Results from paper PMC7782499, “Progerinin, an optimized progerin-lamin A binding inhibitor, ameliorates premature senescence phenotypes of Hutchinson-Gilford progeria syndrome” (Communications Biology, 2021).
Values joined by “and” are separate entries in the source; they are usually repeats but may differ in a detail not shown here. Identical values can stand only once.

Columns and labels:
CYP2C9 = CYP2C9 (Homo sapiens, UniProt P11712); test: CYP inhibition, CYP2C9; format: in vitro ADME; parameters: unit not given here
Method: At pre-set time-points, blood concentration of JH4 was determined by LC-MS/MS analysis[22],[23]. Other chemicals were also tested using similar protocol. In vitro ADME studies (plasma protein binding, CYP inhibition, microsomal stability, plasma stability, and hERG inhibition) were performed by New Drug Development Center (Daegu, Korea) using standard protocols[24],[25].

progerin = target: T1, progerin (Homo sapiens, UniProt P02545); test: Exogenous GFP-progerin expression in transfected HEK293 cells; format: cell-based; parameters: expressed in transfected cells; host or cells: HEK293 (ATCC); vector from T. Misteli (NCI); settings: for GFP intensity after treatment with SLC-D011, Ave: average; for GFP intensity after treatment with SLC-D011: single replicates
T1 sequence (P02545 1-614 isoform P02545-6): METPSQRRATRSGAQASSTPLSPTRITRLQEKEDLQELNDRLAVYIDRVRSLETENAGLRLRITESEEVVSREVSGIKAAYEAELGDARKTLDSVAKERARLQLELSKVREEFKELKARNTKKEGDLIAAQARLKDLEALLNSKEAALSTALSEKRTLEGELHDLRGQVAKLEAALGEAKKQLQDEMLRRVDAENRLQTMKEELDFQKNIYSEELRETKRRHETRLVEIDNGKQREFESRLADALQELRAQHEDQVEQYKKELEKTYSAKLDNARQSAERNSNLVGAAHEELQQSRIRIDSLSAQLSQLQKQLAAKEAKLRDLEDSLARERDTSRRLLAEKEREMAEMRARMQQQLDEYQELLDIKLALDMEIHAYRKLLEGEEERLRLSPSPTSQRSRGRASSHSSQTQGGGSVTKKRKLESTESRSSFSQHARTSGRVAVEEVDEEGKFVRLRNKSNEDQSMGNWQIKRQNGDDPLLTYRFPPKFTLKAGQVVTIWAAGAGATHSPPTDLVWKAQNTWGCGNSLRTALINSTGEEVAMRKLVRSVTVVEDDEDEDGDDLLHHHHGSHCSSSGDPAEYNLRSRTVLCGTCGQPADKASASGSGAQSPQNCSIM
Method: A. In vivo pharmacokinetic (PK) analysis of JH010 (performed in rats). […] B Effect of SLC-D011 on human ERG (hERG). […] C In vivo pharmacokinetic analysis of SLD-D011. […] HEK293 cells transiently transfected with GFP-PG vectors were treated with SLC-D011 for 24 hr (n = 3 independent experiment; two-tailed Student’s t test). […] “Con” means dimethyl sulfoxide (DMSO)-treated control.
GFP tag conjugated EV (GFP-EV), lamin A (GFP-LA), lamin A-C661A (GFP-LA-C661A), progerin (GFP-PG), and progerin-C611A (GFP-PG-C611A) vectors were used. GFP-PG and GFP-LA expression vectors were kindly provided by Misteli T. (National Cancer Institute [NCI], Frederick, MD, USA). GFP-LA-C661A and GFP-PG-C611A expression vectors were created by a single point mutation in CaaX motif. The CSIM sequence of lamin A, or progerin was mutated to ASIM. jetPEI (Polyplus Transfection, NY, USA) was used for transfection of expression vectors. Vectors were mixed with 1.5 μl of jetPEI in 150 mM NaCl solution. The mixture was added to HEK293 cells. After 4 h of incubation, medium was replaced with a new medium supplemented with 10% FBS.
Protein was extracted from cells using a radioimmunoprecipitation assay (RIPA) buffer (50 mM Tris-Cl, pH 7.5, 150 mM NaCl, 1% NP-40, 0.1% SDS, and 10% sodium deoxycholate). Samples were separated by sodium dodecyl sulfate-polyacrylamide gel electrophoresis (SDS-PAGE) and transferred to polyvinylidene difluoride (PVDF) membranes. Blotted membranes were blocked with 3% skimmed milk in TBS-T buffer (20 mM Tris pH 7.6, 150 mM NaCl, and 0.05% Tween 20) for 1 h followed by incubation with specific primary antibodies. Horseradish peroxidase (HRP)-conjugated goat anti-mouse, goat anti-rabbit, and mouse anti-goat IgG antibodies (Pierce, Thermo Fisher Scientific, Inc., Rockford, IL, USA) were used as secondary antibodies. Peroxidase activity was detected by chemiluminescence using an ECL kit (Intron, Seoul, Korea) following the manufacturer’s instructions. Bands were quantified using Image J software (National Institute of Health, NIH).

CYP2C9, sequence (P11712 whole entry): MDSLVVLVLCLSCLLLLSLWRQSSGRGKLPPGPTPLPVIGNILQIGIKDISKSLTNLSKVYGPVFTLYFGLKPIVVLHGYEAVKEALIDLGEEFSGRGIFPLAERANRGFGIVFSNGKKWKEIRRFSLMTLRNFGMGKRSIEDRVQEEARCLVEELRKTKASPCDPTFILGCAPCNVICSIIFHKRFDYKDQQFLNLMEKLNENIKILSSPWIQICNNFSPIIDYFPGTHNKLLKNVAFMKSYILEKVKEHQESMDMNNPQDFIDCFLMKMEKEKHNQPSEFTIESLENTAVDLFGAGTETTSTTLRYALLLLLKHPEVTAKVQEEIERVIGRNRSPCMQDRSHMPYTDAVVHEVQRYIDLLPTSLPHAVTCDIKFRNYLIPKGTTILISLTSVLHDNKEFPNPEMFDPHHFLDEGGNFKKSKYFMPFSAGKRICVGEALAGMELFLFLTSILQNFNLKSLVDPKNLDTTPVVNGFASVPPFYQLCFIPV

CC1(C)Oc2cc3oc(=O)ccc3cc2C[C@@H]1OC/C=C/c1ccccc1 [SLC-D011]
CYP inhibition (CYP2C9): 78.4
GFP intensity after treatment with SLC-D011, Ave (progerin; 10nM): 23.7595 AU
GFP intensity after treatment with SLC-D011 (progerin; 10nM): 22.794 AU and 22.0662 AU and 26.4183 AU
GFP intensity after treatment with SLC-D011, Ave (progerin; 50nM): 15.0559 AU
GFP intensity after treatment with SLC-D011 (progerin; 50nM): 15.1696 AU and 15.171 AU and 14.827 AU
GFP intensity after treatment with SLC-D011, Ave (progerin; 100nM): 3.935 AU
GFP intensity after treatment with SLC-D011 (progerin; 100nM): 3.384 AU and 4.172 AU and 4.251 AU
GFP intensity after treatment with SLC-D011, Ave (progerin; 500nM): 1.357 AU
GFP intensity after treatment with SLC-D011 (progerin; 500nM): 1.4575 AU and 1.25 AU and 1.363 AU
GFP intensity after treatment with SLC-D011, Ave (progerin; 1μM): 1.02 AU
GFP intensity after treatment with SLC-D011 (progerin; 1μM): 0.898 AU and 1.076 AU and 1.085 AU
GFP intensity after treatment with SLC-D011, Ave (progerin; 2μM): 0.8179 AU
GFP intensity after treatment with SLC-D011 (progerin; 2μM): 0.8856 AU and 0.7639 AU and 0.8042 AU
GFP intensity after treatment with SLC-D011, Ave (progerin; 5μM): 0.08935 AU
GFP intensity after treatment with SLC-D011 (progerin; 5μM): 0.1141 AU and 0.03666 AU and 0.1173 AU
Concentration from which exogenous progerin expression is reduced (progerin; HEK293, GFP-PG, 24 hr): 100 nM
